In patent US20260041679A1, “METHOD OF TREATING HYPERTENSION WITH THE ALDOSTERONE SYNTHASE INHIBITOR BAXDROSTAT” (CINCOR PHARMA, INC., priority 2022, published 2026):
“And” between values parts separate entries of the source, which are not always exact repeats. Equal values may be shown once.

Legend:
Type in all cases: in vivo, human
[1] = Absorption, metabolism and excretion of [14C]-baxdrostat (Example 7)
Experimental: Eight male subjects each received a single oral 10 mg (containing approximately 100 uCi) dose of baxdrostat. Blood, urine and fecal samples were collected to determine the metabolic and excretion pathways of baxdrostat. Preliminary findings indicate that the mean excretion of radioactivity was 69.4% and 15.3%, of the dose in the urine and feces, respectively. Unchanged baxdrostat was the major component in urine and feces, constituting 16.8% and 6.1% of the dose, respectively.

[2] = system: patients with rHTN; assay: Study 121: seated blood pressure in patients with resistant hypertension (Example 8); conditions: for DBP decrease: after 12 weeks
Excerpt: This study was a randomized, double-blind, placebo-controlled study to evaluate the efficacy and safety of baxdrostat in patients with rHTN. Patients with rHTN were defined as being on a stable regimen of ≥3 antihypertensive agents, one of which is a diuretic with a mean seated blood pressure (BP)≥130/80 mmHg. […] The secondary objectives were to evaluate the change from baseline in mean seated DBP with each of the selected dose strengths of baxdrostat compared to placebo and to evaluate the percentage of patients achieving a seated BP response<130/80 mmHg with each of the dose strengths of baxdrostat compared to placebo after 12 weeks of treatment. […] The study was planned to enroll 348 patients.
The primary endpoint was the placebo-adjusted change from baseline to week 12 of the mean office SBP. The secondary endpoints included the placebo-adjusted change from baseline to week 12 in seated office DBP, and the percentage of patients achieving a seated BP response<130/80 mmHg with each of the selected dose strengths of baxdrostat compared to placebo after 12 weeks of treatment for rHTN.
The point estimates for the main treatment effect and for the secondary endpoints were generated by mixed model analyses of covariance that included responder status as a fixed effect. […] The change from baseline in mean seated SBP will be analyzed using a mixed model for repeated measures (MMRM) model. The analysis includes fixed effects for treatment, visit, and treatment-by-visit interaction, along with covariates of the baseline mean seated SBP and baseline glomerular filtration rate. The restricted maximum likelihood estimation (REML) approach was used with an unstructured covariance matrix.

[3] = Multiple ascending dose study, pharmacokinetics (Example 2)
Experimental: This randomized, double-blind, placebo-controlled phase 1 study evaluated the safety, pharmacokinetics, and pharmacodynamics of multiple ascending doses of baxdrostat in healthy volunteers. Fifty-six subjects were randomized to receive oral baxdrostat (0.5, 1.5, 2.5, or 5.0 mg) or placebo once daily for ten days and were placed on either a low salt or normal salt diet for the duration of the study. In particular, subjects were randomized into 5 cohorts to receive baxdrostat or placebo once daily for 10 days. Cohorts 1 and 2 were placed on a low salt diet to stimulate aldosterone production and were administered 2.5 or 5.0 mg oral baxdrostat, respectively. Cohorts 1 and 2 also underwent an adrenocorticotropic hormone (ACTH) challenge to increase aldosterone and cortisol levels to evaluate the specificity of baxdrostat for targeting aldosterone synthase. Cohorts 3, 4, and 5 were placed on a normal salt diet and were administered 1.5, 2.5, or 0.5 mg oral baxdrostat, respectively. Blood samples were collected prior to and after dosing on days 1 and 10 for measurement of plasma baxdrostat concentrations to characterize single-dose and steady-state pharmacokinetics. Pharmacodynamic measurements included plasma aldosterone, cortisol, and electrolytes. Safety assessments included physical examination, electrocardiograms, orthostatic vital signs, and clinical laboratory evaluations.

[4] = single oral 10 mg [14C] dose, preliminary findings

CCC(=O)N[C@@H]1CCCc2c(-c3ccc4c(c3)CCC(=O)N4C)cncc21 [baxdrostat, (R)—N-(4-(1-methyl-2-oxo-1,2,3,4-tetrahydroquinolin-6-yl)-5,6,7,8-tetrahydroisoquinolin-8-yl) propionamide]
mean blood:plasma concentration ratios ([1]; radioactivity): low association of radioactivity with blood cells
share of total systemic exposure by AUC0-inf in plasma ([1]; single oral 10 mg [14C] dose): 71%
unchanged baxdrostat in feces ([1]; single oral 10 mg [14C] dose): 6.1 % of the dose
unchanged baxdrostat in urine ([1]; single oral 10 mg [14C] dose): 16.8 % of the dose
mean excretion of radioactivity in feces [1, 4]: 15.3 % of the dose
mean excretion of radioactivity in urine [1, 4]: 69.4 % of the dose
DBP, LS mean change (SE) ([2]; 0.5 mg QD, 12 weeks): −8.6 (1.23) mmHg
DBP, LS mean difference vs placebo (SE) ([2]; 0.5 mg QD, 12 weeks): 0.5 (1.74) mmHg
SBP, LS mean difference vs placebo (SE) ([2]; 0.5 mg QD, 12 weeks): −2.7 (2.68) mmHg
SBP, LS mean change (SE) ([2]; 0.5 mg QD, 12 weeks, mITT): −12.1 (1.91) mmHg
treatment effect on SBP vs placebo ([2]; 0.5 mg, 12 weeks): modestly greater than that of placebo, but this difference did not reach statistical significance
DBP decrease ([2]; 0.5 mg): 8.6 mmHg
DBP, LS mean change (SE) ([2]; 1 mg QD, 12 weeks): −11.8 (1.26) mmHg
DBP, LS mean difference vs placebo (SE) ([2]; 1 mg QD, 12 weeks): −2.7 (1.75) mmHg
SBP, LS mean difference vs placebo (SE) ([2]; 1 mg QD, 12 weeks): −8.1 (2.7) mmHg and −8.1 (2.72) mmHg
SBP, LS mean change (SE) ([2]; 1 mg QD, 12 weeks, mITT): −17.5 (1.95) mmHg
placebo-adjusted SBP decline ([2]; 1 mg, 12 weeks): 8.1 mmHg
DBP decrease ([2]; 1 mg): 11.8 mmHg
DBP, LS mean change (SE) ([2]; 2 mg QD, 12 weeks): −14.3 (1.31) mmHg
DBP, LS mean difference vs placebo (SE) ([2]; 2 mg QD, 12 weeks): −5.2 (1.79) mmHg
SBP, LS mean difference vs placebo (SE) ([2]; 2 mg QD, 12 weeks): −11.0 (2.78) mmHg
SBP, LS mean change (SE) ([2]; 2 mg QD, 12 weeks, mITT): −20.3 (2.05) mmHg
DBP lowered compared to the placebo group ([2]; 2 mg, 12 weeks): 5.2 mmHg
model adjusted, placebo-corrected decline in SBP ([2]; 2 mg, 12 weeks): 11.0 mmHg
reduction in SBP ([2]; 2 mg, 12 weeks): 20.3 mmHg
DBP decrease ([2]; 2 mg): 14.3 mmHg
model adjusted and placebo-corrected change from baseline in SBP ([2]; 2 mg, intent to treat (ITT) analysis set): −11 mmHg
model adjusted and placebo-corrected change from baseline in SBP ([2]; 2 mg, per protocol analysis set): −11.1 mmHg
time course of SBP decrease ([2]; 12 weeks of treatment): rapid after treatment started and sustained throughout the 12 weeks of treatment
SBP, LS mean change (SE) ([2]; Female, 0.5 mg): −10.2 (2.77)
SBP, LS mean difference (SE) ([2]; Female, 0.5 mg vs placebo): 5.1 (4.12)
SBP, LS mean change (SE) ([2]; Female, 1 mg): −17.8 (2.74)
SBP, LS mean difference (SE) ([2]; Female, 1 mg vs placebo): −2.5 (4.09)
SBP, LS mean change (SE) ([2]; Female, 2 mg): −18.2 (3.01)
SBP, LS mean difference (SE) ([2]; Female, 2 mg vs placebo): −2.9 (4.27)
SBP, LS mean change (SE) ([2]; Hispanic/Latino Female, 0.5 mg): −15.9 (4.27)
SBP, LS mean difference (SE) ([2]; Hispanic/Latino Female, 0.5 mg vs placebo): 2.2 (5.93)
SBP, LS mean change (SE) ([2]; Hispanic/Latino Female, 1 mg): −11.5 (4.80)
SBP, LS mean difference (SE) ([2]; Hispanic/Latino Female, 1 mg vs placebo): 6.6 (6.33)
SBP, LS mean change (SE) ([2]; Hispanic/Latino Female, 2 mg): −19.4 (3.59)
SBP, LS mean difference (SE) ([2]; Hispanic/Latino Female, 2 mg vs placebo): −1.3 (5.46)
SBP, LS mean change (SE) ([2]; Hispanic/Latino, 0.5 mg): −13.3 (2.72)
SBP, LS mean difference (SE) ([2]; Hispanic/Latino, 0.5 mg vs placebo): −1.9 (3.94)
SBP, LS mean change (SE) ([2]; Hispanic/Latino, 1 mg): −16.7 (3.43)
SBP, LS mean difference (SE) ([2]; Hispanic/Latino, 1 mg vs placebo): −5.4 (4.46)
SBP, LS mean change (SE) ([2]; Hispanic/Latino, 2 mg): −21.8 (2.95)
SBP, LS mean difference (SE) ([2]; Hispanic/Latino, 2 mg vs placebo): −10.5 (4.10)
SBP, LS mean change (SE) ([2]; Male, 0.5 mg): −13.7 (2.59)
SBP, LS mean difference (SE) ([2]; Male, 0.5 mg vs placebo): −8.0 (3.53)
SBP, LS mean change (SE) ([2]; Male, 1 mg): −17.4 (2.76)
SBP, LS mean difference (SE) ([2]; Male, 1 mg vs placebo): −11.7 (3.66)
SBP, LS mean change (SE) ([2]; Male, 2 mg): −22.4 (2.73)
SBP, LS mean difference (SE) ([2]; Male, 2 mg vs placebo): −16.4 (3.63)
SBP, LS mean change (SE) ([2]; Not Hispanic/Latino, 0.5 mg): −10.9 (2.72)
SBP, LS mean difference (SE) ([2]; Not Hispanic/Latino, 0.5 mg vs placebo): −3.1 (3.75)
SBP, LS mean change (SE) ([2]; Not Hispanic/Latino, 1 mg): −17.9 (2.41)
SBP, LS mean difference (SE) ([2]; Not Hispanic/Latino, 1 mg vs placebo): −10.0 (3.52)
SBP, LS mean change (SE) ([2]; Not Hispanic/Latino, 2 mg): −19.2 (2.86)
SBP, LS mean difference (SE) ([2]; Not Hispanic/Latino, 2 mg vs placebo): −11.4 (3.84)
SBP, LS mean change (SE) ([2]; Other (not Hispanic/Latino Female), 0.5 mg): −11.1 (2.11)
SBP, LS mean difference (SE) ([2]; Other (not Hispanic/Latino Female), 0.5 mg vs placebo): −4.0 (2.99)
SBP, LS mean change (SE) ([2]; Other (not Hispanic/Latino Female), 1 mg): −18.7 (2.13)
SBP, LS mean difference (SE) ([2]; Other (not Hispanic/Latino Female), 1 mg vs placebo): −11.6 (3.00)
SBP, LS mean change (SE) ([2]; Other (not Hispanic/Latino Female), 2 mg): −20.9 (2.45)
SBP, LS mean difference (SE) ([2]; Other (not Hispanic/Latino Female), 2 mg vs placebo): −13.8 (3.24)
systolic and diastolic blood pressure ([2]; patients with resistant hypertension, FIGS. 10A and 10B): dose-dependent decreases
SBP reduction by subgroup ([2]; subgroup analyses, baseline to Day 85): greater reduction in SBP if they were male, white, not Hispanic or Latino, higher eGFR, and baseline SBP value of ≥145 mmHg
plasma levels of baxdrostat vs dose ([3]; 0.5 to 5.0 mg once daily): increased proportionally with ascending doses
time of peak concentrations after dosing ([3]; 0.5 to 5.0 mg once daily): ≤ 4 h
half-life ([3]; human, plasma, oral, 0.5 to 5.0 mg once daily): 26 to 31 h
absorption ([3]; oral, healthy subjects): rapidly absorbed
